{"source": "patent EP4782437A1", "about": "“HETEROARYL COMPOUND, AND PREPARATION METHOD THEREFOR AND USE THEREOF IN MEDICINE” (Jiangsu Hengrui Pharmaceuticals Co., Ltd., priority 2023, dated 2025)", "key": {"[1]": {"system": "mouse RPA model", "assay": "Efficacy in mouse RPA model (acute urticaria induced by OVA antigen and anti-OVA IgG)", "type": "in vivo, C57BL/6N mice", "conditions": "single dose, p.o.; for inhibition of OVA-induced skin swelling in mice: compared with the model group", "protocol": "To evaluate the efficacy of compound 3 in a mouse RPA model.\nThe administration volume of the vehicle was 10 ml/kg, and that of compound 3 was 20 ml/kg. The vehicle consisted of 0.5% MC + 0.5% Tween 80 + 99% water.\nThirty-three female C57BL/6N mice weighing 18-20 g were purchased from Vital River Laboratories. Animal production license No.: SCXK (Zhe) 2024-0001; animal qualification certificate No.: 20240229Abzz0619000122. The mice were housed in an SPF-grade animal facility under a 12/12-hour light/dark cycle, with a constant temperature of 23°C ± 1°C and a relative humidity of 50-60%. Food and water were provided ad libitum.\nAfter acclimatisation, the mice were grouped and administered as follows: Table 4. Animal grouping and dosing regimen for in vivo efficacy experiment\nAfter acclimatisation, the mice were shaved on the back one day prior to the experiment for skin preparation. On the day of the experiment, the mice were administered the vehicle control or compound 3 via oral gavage at administration volumes of 10 ml/kg and 20 ml/kg, respectively. Two hours post-administration, the mice were anaesthetised with isoflurane, and the thickness of the dorsal skin was measured using a vernier calliper. Upon completion of the measurement, 30 µg of mouse anti-OVA IgG was intradermally injected into the dorsal skin of the mice, while an equal volume of PBS was injected into the control group. Simultaneously, 200 µl of 2 mg/ml OVA antigen was intravenously injected. After 3 hours, the thickness of the skin swelling at the modelling site was measured.\nData of relevant indicators for animals in each group were expressed as mean ± standard deviation (Mean ± SD) and statistically analysed and plotted using GraphPad software."}, "[2]": {"target": "hERG potassium channels (Homo sapiens, UniProt Q12809)", "sequence (Q12809 whole entry)": "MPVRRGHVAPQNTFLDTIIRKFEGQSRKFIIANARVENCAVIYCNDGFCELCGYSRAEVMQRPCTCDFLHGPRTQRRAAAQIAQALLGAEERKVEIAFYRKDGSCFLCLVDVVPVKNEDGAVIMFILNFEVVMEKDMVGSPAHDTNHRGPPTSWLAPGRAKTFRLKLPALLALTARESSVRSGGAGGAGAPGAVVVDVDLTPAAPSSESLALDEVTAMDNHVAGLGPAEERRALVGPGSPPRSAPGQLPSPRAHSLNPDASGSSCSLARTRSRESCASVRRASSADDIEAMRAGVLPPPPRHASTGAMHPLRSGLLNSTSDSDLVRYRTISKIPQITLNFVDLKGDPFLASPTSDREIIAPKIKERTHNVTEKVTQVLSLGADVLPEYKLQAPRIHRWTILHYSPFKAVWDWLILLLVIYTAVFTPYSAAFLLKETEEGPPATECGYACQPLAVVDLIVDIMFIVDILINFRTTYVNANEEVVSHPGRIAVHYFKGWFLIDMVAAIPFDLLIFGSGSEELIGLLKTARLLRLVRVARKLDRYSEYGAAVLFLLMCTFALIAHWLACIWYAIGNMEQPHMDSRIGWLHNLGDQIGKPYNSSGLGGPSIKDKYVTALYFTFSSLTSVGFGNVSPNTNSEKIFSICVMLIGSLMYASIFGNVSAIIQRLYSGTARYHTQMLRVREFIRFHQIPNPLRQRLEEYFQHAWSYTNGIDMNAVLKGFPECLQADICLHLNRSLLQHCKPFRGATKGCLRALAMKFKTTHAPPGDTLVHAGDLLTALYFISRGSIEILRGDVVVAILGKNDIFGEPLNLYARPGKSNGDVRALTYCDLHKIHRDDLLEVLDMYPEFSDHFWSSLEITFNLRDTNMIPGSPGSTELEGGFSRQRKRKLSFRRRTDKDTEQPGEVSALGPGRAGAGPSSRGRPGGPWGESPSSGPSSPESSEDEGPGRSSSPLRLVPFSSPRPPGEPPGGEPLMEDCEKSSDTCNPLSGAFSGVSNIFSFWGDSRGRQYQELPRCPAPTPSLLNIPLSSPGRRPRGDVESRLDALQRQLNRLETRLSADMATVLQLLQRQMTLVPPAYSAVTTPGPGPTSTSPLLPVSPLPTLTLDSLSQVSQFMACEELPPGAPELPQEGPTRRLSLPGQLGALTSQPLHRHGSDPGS", "assay": "in vitro"}, "[3]": {"system": "B cell activation in human whole blood", "assay": "Inhibition of B cell activation in human whole blood (CD69 expression, flow cytometry)", "type": "cell-based", "conditions": "anti-human IgD 30 µg/ml + IL-4 5 ng/ml, 18 hours, CD69-positive CD19-positive B cells, read-out: IC50 values of inhibitory activity against B cell activation in human whole blood", "description": "Test example 2: Inhibitory activity of compounds of the present disclosure against B cell activation in human whole blood • I. Experimental materials and instruments • 1. Human whole blood (internal recruitment) • 2. Goat F(ab')2 anti-human IgD-UNLB (SouthernBiotech, 2032-01) • 3. DPBS (1x) (Gibco, 14190-144) • 4. Recombinant human IL-4 (Peprotech, 200-04) • 5. Brilliant Violet 421™ anti-human CD19 antibody (Biolegend, 302234) • 6. APC anti-human CD69 antibody (Biolegend, 310910) • 7. APC mouse IgG1, κ isotype control antibody (Biolegend, 400120) • 8. eBioscience™ 10X RBC lysis buffer (multi-species) (Thermo, 004300-54) • 9. NEST 96-well deep-well plate (Wuxi NEST Biotechnology Co., Ltd., 503501) • 10. 96-well round-bottom plate (Corning, 3788) • 11. 96-well flat-bottom plate (Corning, 3599) • 12. Attune™ NxT acoustic focusing cytometer (ThermoFisher Scientific, 4.2.0) • 13. Cell incubator (Thermo, Forma steri-cycle i160) • II. Experimental procedure\nB cells express the B cell receptor (BCR) complex on their surface. When B cells in human whole blood are induced to activate, they can trigger the downstream signalling pathways of the receptor and express the activation marker CD69. The expression of CD69 in activated B cells was detected by flow cytometry, and the IC50 of the compounds were calculated to evaluate the effects of the compounds on BCR activation.\nThe test compounds dissolved in 100% DMSO at 20 mM were diluted with 100% DMSO to a concentration of 1 mM, which represents the 200× concentration of the highest compound concentration point in the reaction system. The compounds at this concentration were then subjected to 8-point 4-fold serial dilution with 100% DMSO. The positive control wells were set with 100% DMSO, whereas the negative control wells were set with Remiburtinib at a final concentration of 5 µM. The serially diluted compounds and 100% DMSO were further diluted 10-fold in PBS to achieve the 20× concentration, followed by thorough mixing.\nAfter thorough mixing, the whole blood sample was transferred to a loading reservoir and then dispensed into a 96-well flat-bottom plate at 80 µl per well. The compound dilution was dispensed at 5 µl per well. The 11th column of each row was designated as the negative control well, with 5 µl of 100 µM positive control drug added to each well. After thorough mixing for 5 min, the plate was incubated in a 37°C incubator for 30 min. Human IgD antibody was diluted 1.67-fold with PBS to a concentration of 300 µg/mL, and 10 µl of the diluted solution was added to each well of the culture plate (final concentration: 30 µg/ml). Human IL-4 (stock solution at 50 µg/ml) was diluted 500-fold with PBS to a concentration of 100 ng/mL, and 5 µl of the diluted solution was added to each well of the culture plate (final concentration: 5 ng/ml). After thorough mixing for 5 min, the plate was cultured in a 37°C incubator with 5% CO2 for 18 hours.\nFlow cytometry detection: CD69-APC, CD19-BV421 and CD4-APC antibodies, and the isotype control antibodies for CD69-APC were removed from 4°C storage. Each antibody was added at 1 µl per well. After thorough mixing for 5 min, the plate was incubated for 30 min at 4°C (refrigerator) in the dark for staining. The 10X RBC lysis buffer was diluted in water to prepare 1X RBC lysis buffer. Aliquots of 1 ml of the lysis buffer were dispensed into each well of a 96-well deep-well plate in advance. The stained samples were transferred into the deep-well plate containing the lysis buffer for erythrocyte lysis. After completing the transfer of an entire plate, the plate was incubated in the dark for 15-20 min. Upon completion of lysis, the plate was centrifuged at 2000 rpm for 4 min. Each well was washed with 1 ml of PBS. Subsequently, the cells were resuspended in 200 µl of PBS, transferred to a 96-well plate, and washed twice more using the same procedure. The samples were resuspended in 200 µl of PBS per well and then subjected to flow cytometry detection. […]"}}, "data": [{"smiles": "C=CC(=O)N(C)CCOc1c(N)ncnc1-c1cc(F)cc(NC(=O)c2cc3c(cc2F)C2(CC2)CO3)c1C", "note": "[Example 3, N-(3-(6-amino-5-(2-(N-methacrylamido)ethoxy)pyrimidin-4-yl)-5-fluoro-2-methylphenyl)-5-fluoro-2H-spiro[benzofuran-3,1'-cyclopropane]-6-carboxamide]", "values": [{"measurement": "inhibitory effect on skin swelling across doses", "setting": "[1]; 30, 100 and 150 mpk", "result": "dose-dependent inhibitory effect"}, {"measurement": "inhibition of OVA-induced skin swelling in mice", "setting": "[1]; 30 mpk", "result": "no statistically significant difference"}, {"measurement": "inhibition of OVA-induced skin swelling in mice", "setting": "[1]; 100 mpk", "result": "significantly inhibited"}, {"measurement": "inhibition of OVA-induced skin swelling in mice", "setting": "[1]; 150 mpk", "result": "significantly inhibited"}, {"measurement": "IC50", "setting": "[2]", "result": "> 12.3", "unit": "µM"}, {"measurement": "IC50", "setting": "[3]", "result": "0.01 to 0.1", "unit": "µM"}]}]}
